{"source": "patent US6525001B1", "about": "“Substituted pyrimidine and pyridine herbicides” (Mid-American Commercialization Corporation, priority 1997, dated 2003)", "assay_in_all_cases": "Test B pre-/postemergence", "assay_type_in_all_cases": "in vivo", "design_in_all_cases": "key: 0 is no effect; 10 is complete control", "key": {"[1]": {"tested_on": "bedstraw (Galium aparine)", "how_it_was_run": "(§1)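 Response scores run from 0, meaning no effect, to 10, meaning complete control, assigned by eye relative to controls twelve to sixteen days after spraying. Treatment was both preemergence on planted seed and postemergence on plants at the 1- to 4-leaf stage.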"}, "[2]": {"tested_on": "blackgrass (Alopecurus myosuroides)", "how_it_was_run": "as §1"}, "[3]": {"tested_on": "broadleaf signalgrass (Brachiaria decumbens)", "how_it_was_run": "as §1"}, "[4]": {"tested_on": "cocklebur (Xanthium strumarium)", "how_it_was_run": "as §1"}, "corn (Zea mays)": {"tested_on": "corn (Zea mays)", "how_it_was_run": "as §1"}, "[5]": {"tested_on": "crabgrass (Digitaria sanguinalis)", "how_it_was_run": "as §1"}, "[6]": {"tested_on": "giant foxtail (Setaria faberii)", "how_it_was_run": "as §1"}, "[7]": {"tested_on": "momingglory (Ipomoea hederacea)", "how_it_was_run": "as §1"}, "[8]": {"tested_on": "pigweed (Amaranthus retroflexus)", "how_it_was_run": "as §1"}, "rape (Brassica napus)": {"tested_on": "rape (Brassica napus)", "how_it_was_run": "as §1"}, "soybean (Glycine max)": {"tested_on": "soybean (Glycine max)", "how_it_was_run": "as §1"}, "[9]": {"tested_on": "sugar beet (Beta vulgaris)", "how_it_was_run": "as §1"}, "[10]": {"tested_on": "velvetleaf (Abutilon theophrasti)", "how_it_was_run": "as §1"}, "[11]": {"tested_on": "wheat (Triticum aestivum)", "how_it_was_run": "as §1"}}}
{"smiles": "Cc1cnc(-n2cnc(C(F)(F)F)n2)nc1Cn1ccc(C(F)(F)F)n1", "note": "[Compound 51]", "values": [{"measurement": "Plant response rating, Bedstraw", "setting": "[1]; Rate 62 g/ha, Postemergence", "result": 9}, {"measurement": "Bedstraw plant response rating", "setting": "[1]; Rate 62 g/ha, Preemergence", "result": 8}, {"measurement": "Bedstraw plant response rating", "setting": "[1]; Rate 125 g/ha, Postemergence", "result": 10}, {"measurement": "Plant response rating, Bedstraw", "setting": "[1]; Rate 125 g/ha, Preemergence", "result": 10}, {"measurement": "Plant response rating, Bedstraw", "setting": "[1]; Rate 250 g/ha, Postemergence", "result": 10}, {"measurement": "Plant response rating, Bedstraw", "setting": "[1]; Rate 250 g/ha, Preemergence", "result": 9}, {"measurement": "Plant response rating, Blackgrass", "setting": "[2]; Rate 62 g/ha, Postemergence", "result": 7}, {"measurement": "Blackgrass plant response rating", "setting": "[2]; Rate 62 g/ha, Preemergence", "result": 7}, {"measurement": "Blackgrass plant response rating", "setting": "[2]; Rate 125 g/ha, Postemergence", "result": 9}, {"measurement": "Plant response rating, Blackgrass", "setting": "[2]; Rate 125 g/ha, Preemergence", "result": 9}, {"measurement": "Plant response rating, Blackgrass", "setting": "[2]; Rate 250 g/ha, Postemergence", "result": 9}, {"measurement": "Plant response rating, Blackgrass", "setting": "[2]; Rate 250 g/ha, Preemergence", "result": 10}, {"measurement": "Plant response rating, B. signalgrass", "setting": "[3]; Rate 62 g/ha, Postemergence", "result": 2}, {"measurement": "B. signalgrass plant response rating", "setting": "[3]; Rate 62 g/ha, Preemergence", "result": 4}, {"measurement": "B. signalgrass plant response rating", "setting": "[3]; Rate 125 g/ha, Postemergence", "result": 8}, {"measurement": "Plant response rating, B. signalgrass", "setting": "[3]; Rate 125 g/ha, Preemergence", "result": 9}, {"measurement": "Plant response rating, B. signalgrass", "setting": "[3]; Rate 250 g/ha, Postemergence", "result": 9}, {"measurement": "Plant response rating, B. signalgrass", "setting": "[3]; Rate 250 g/ha, Preemergence", "result": 9}, {"measurement": "Plant response rating, Cocklebur", "setting": "[4]; Rate 62 g/ha, Postemergence", "result": 6}, {"measurement": "Cocklebur plant response rating", "setting": "[4]; Rate 62 g/ha, Preemergence", "result": 3}, {"measurement": "Cocklebur plant response rating", "setting": "[4]; Rate 125 g/ha, Postemergence", "result": 9}, {"measurement": "Plant response rating, Cocklebur", "setting": "[4]; Rate 125 g/ha, Preemergence", "result": 10}, {"measurement": "Plant response rating, Cocklebur", "setting": "[4]; Rate 250 g/ha, Postemergence", "result": 9}, {"measurement": "Plant response rating, Cocklebur", "setting": "[4]; Rate 250 g/ha, Preemergence", "result": 10}, {"measurement": "Plant response rating, Corn", "setting": "corn (Zea mays); Rate 62 g/ha, Postemergence", "result": 7}, {"measurement": "Corn plant response rating", "setting": "corn (Zea mays); Rate 62 g/ha, Preemergence", "result": 4}, {"measurement": "Corn plant response rating", "setting": "corn (Zea mays); Rate 125 g/ha, Postemergence", "result": 8}, {"measurement": "Plant response rating, Corn", "setting": "corn (Zea mays); Rate 125 g/ha, Preemergence", "result": 8}, {"measurement": "Plant response rating, Corn", "setting": "corn (Zea mays); Rate 250 g/ha, Postemergence", "result": 9}, {"measurement": "Plant response rating, Corn", "setting": "corn (Zea mays); Rate 250 g/ha, Preemergence", "result": 8}, {"measurement": "Plant response rating, Crabgrass", "setting": "[5]; Rate 62 g/ha, Postemergence", "result": 9}, {"measurement": "Crabgrass plant response rating", "setting": "[5]; Rate 62 g/ha, Preemergence", "result": 10}, {"measurement": "Crabgrass plant response rating", "setting": "[5]; Rate 125 g/ha, Postemergence", "result": 10}, {"measurement": "Plant response rating, Crabgrass", "setting": "[5]; Rate 125 g/ha, Preemergence", "result": 10}, {"measurement": "Plant response rating, Crabgrass", "setting": "[5]; Rate 250 g/ha, Postemergence", "result": 10}, {"measurement": "Plant response rating, Crabgrass", "setting": "[5]; Rate 250 g/ha, Preemergence", "result": 10}, {"measurement": "Plant response rating, Giant foxtail", "setting": "[6]; Rate 62 g/ha, Postemergence", "result": 8}, {"measurement": "Giant foxtail plant response rating", "setting": "[6]; Rate 62 g/ha, Preemergence", "result": 8}, {"measurement": "Giant foxtail plant response rating", "setting": "[6]; Rate 125 g/ha, Postemergence", "result": 10}, {"measurement": "Plant response rating, Giant foxtail", "setting": "[6]; Rate 125 g/ha, Preemergence", "result": 10}, {"measurement": "Plant response rating, Giant foxtail", "setting": "[6]; Rate 250 g/ha, Postemergence", "result": 10}, {"measurement": "Plant response rating, Giant foxtail", "setting": "[6]; Rate 250 g/ha, Preemergence", "result": 10}, {"measurement": "Plant response rating, Morningglory", "setting": "[7]; Rate 62 g/ha, Postemergence", "result": 10}, {"measurement": "Morningglory plant response rating", "setting": "[7]; Rate 62 g/ha, Preemergence", "result": 10}, {"measurement": "Morningglory plant response rating", "setting": "[7]; Rate 125 g/ha, Postemergence", "result": 10}, {"measurement": "Plant response rating, Morningglory", "setting": "[7]; Rate 125 g/ha, Preemergence", "result": 10}, {"measurement": "Plant response rating, Morningglory", "setting": "[7]; Rate 250 g/ha, Postemergence", "result": 10}, {"measurement": "Plant response rating, Morningglory", "setting": "[7]; Rate 250 g/ha, Preemergence", "result": 10}, {"measurement": "Plant response rating, Redroot pigweed", "setting": "[8]; Rate 62 g/ha, Postemergence", "result": 10}, {"measurement": "Redroot pigweed plant response rating", "setting": "[8]; Rate 62 g/ha, Preemergence", "result": 10}, {"measurement": "Redroot pigweed plant response rating", "setting": "[8]; Rate 125 g/ha, Postemergence", "result": 10}, {"measurement": "Plant response rating, Redroot pigweed", "setting": "[8]; Rate 125 g/ha, Preemergence", "result": 10}, {"measurement": "Plant response rating, Redroot pigweed", "setting": "[8]; Rate 250 g/ha, Postemergence", "result": 10}, {"measurement": "Plant response rating, Redroot pigweed", "setting": "[8]; Rate 250 g/ha, Preemergence", "result": 10}, {"measurement": "Plant response rating, Rape", "setting": "rape (Brassica napus); Rate 62 g/ha, Postemergence", "result": 9}, {"measurement": "Rape plant response rating", "setting": "rape (Brassica napus); Rate 62 g/ha, Preemergence", "result": 10}, {"measurement": "Rape plant response rating", "setting": "rape (Brassica napus); Rate 125 g/ha, Postemergence", "result": 9}, {"measurement": "Plant response rating, Rape", "setting": "rape (Brassica napus); Rate 125 g/ha, Preemergence", "result": 10}, {"measurement": "Plant response rating, Rape", "setting": "rape (Brassica napus); Rate 250 g/ha, Postemergence", "result": 10}, {"measurement": "Plant response rating, Rape", "setting": "rape (Brassica napus); Rate 250 g/ha, Preemergence", "result": 10}, {"measurement": "Plant response rating, Soybean", "setting": "soybean (Glycine max); Rate 62 g/ha, Postemergence", "result": 9}, {"measurement": "Soybean plant response rating", "setting": "soybean (Glycine max); Rate 62 g/ha, Preemergence", "result": 9}, {"measurement": "Soybean plant response rating", "setting": "soybean (Glycine max); Rate 125 g/ha, Postemergence", "result": 9}, {"measurement": "Plant response rating, Soybean", "setting": "soybean (Glycine max); Rate 125 g/ha, Preemergence", "result": 9}, {"measurement": "Plant response rating, Soybean", "setting": "soybean (Glycine max); Rate 250 g/ha, Postemergence", "result": 10}, {"measurement": "Plant response rating, Soybean", "setting": "soybean (Glycine max); Rate 250 g/ha, Preemergence", "result": 9}, {"measurement": "Plant response rating, Sugarbeets", "setting": "[9]; Rate 62 g/ha, Postemergence", "result": 10}, {"measurement": "Sugarbeets plant response rating", "setting": "[9]; Rate 62 g/ha, Preemergence", "result": 10}, {"measurement": "Sugarbeets plant response rating", "setting": "[9]; Rate 125 g/ha, Postemergence", "result": 10}, {"measurement": "Plant response rating, Sugarbeets", "setting": "[9]; Rate 125 g/ha, Preemergence", "result": 10}, {"measurement": "Plant response rating, Sugarbeets", "setting": "[9]; Rate 250 g/ha, Postemergence", "result": 10}, {"measurement": "Plant response rating, Sugarbeets", "setting": "[9]; Rate 250 g/ha, Preemergence", "result": 10}, {"measurement": "Plant response rating, Velvetleaf", "setting": "[10]; Rate 62 g/ha, Postemergence", "result": 7}, {"measurement": "Velvetleaf plant response rating", "setting": "[10]; Rate 62 g/ha, Preemergence", "result": 10}, {"measurement": "Velvetleaf plant response rating", "setting": "[10]; Rate 125 g/ha, Postemergence", "result": 8}, {"measurement": "Plant response rating, Velvetleaf", "setting": "[10]; Rate 125 g/ha, Preemergence", "result": 10}, {"measurement": "Plant response rating, Velvetleaf", "setting": "[10]; Rate 250 g/ha, Postemergence", "result": 9}, {"measurement": "Plant response rating, Velvetleaf", "setting": "[10]; Rate 250 g/ha, Preemergence", "result": 10}, {"measurement": "Wheat plant response rating", "setting": "[11]; Rate 62 g/ha, Postemergence", "result": 6}, {"measurement": "Wheat plant response rating", "setting": "[11]; Rate 62 g/ha, Preemergence", "result": 0}, {"measurement": "Wheat plant response rating", "setting": "[11]; Rate 125 g/ha, Postemergence", "result": 9}, {"measurement": "Plant response rating, Wheat", "setting": "[11]; Rate 125 g/ha, Preemergence", "result": 3}, {"measurement": "Plant response rating, Wheat", "setting": "[11]; Rate 250 g/ha, Postemergence", "result": 9}, {"measurement": "Plant response rating, Wheat", "setting": "[11]; Rate 250 g/ha, Preemergence", "result": 5}]}
